In publication PMC7699649 (Communications Biology, 2020):
Non-standard residues stand in square brackets, D forms with d. Residues, ends and D or L forms follow the SMILES beside them.

Key:
HEK293 = type: cell-based, human; conditions: XTT, 24 h with peptide, OD475; Eagle's Minimum Essential Media, 10% FBS; average and standard error of three biological replicates
Experimental: (§1) HeLa and HEK293 cell lines were purchased from ECACC and cultured in Eagle’s Minimum Essential Media containing glutamine, supplemented with 10% FBS and 1X non-essential amino acids. A549 and Calu-3 cell lines were purchased from ATCC. […] Cytotoxicity was measured by incubating starter cultures of cells for 24 h in a 96 well plate, gently removing the supernatant and replacing it with dilutions of peptides and controls, incubating for a further 24 h and then staining of the cells with the second-generation tetrazolium dye, XTT.

[1] = test system: EMR Staphylococcus aureus-15 NCTC 13616; conditions: RPMI supplemented with 5% FBS (value in parentheses); twofold broth microdilution, 20 h 37 C, OD600; modal MIC, at least three biological replicates
Experimental: The antibacterial activity of the peptides was assessed through a modified twofold broth microdilution assay with modal MICs generated from at least three biological replicate experiments[20],[25]. The method broadly followed EUCAST methodology, with non-cation-adjusted Mueller Hinton or RPMI replacing cation-adjusted Mueller Hinton. Peptides and antibiotics were diluted in a twofold dilution in media down a 96 well plate. Bacteria were then added, back-diluted from an overnight culture, at a starting concentration of 5 × 10^5 CFU/ml. Plates were incubated, static at 37 C, for 20 h and the OD600 was determined using a Clariostar plate reader (BMG Labtech). […] Synergy was measured using standard microdilution checkerboard assays under the same conditions as the MICs[54]. Twofold dilution series of each peptide or antibiotic were prepared in separate 96 well plates and then combined into one before addition of bacteria. The growth/no growth interface was determined using the same definition as the MIC. The fractional inhibitory concentration was calculated from the most synergistic well on the plate for three independent repeats, and presented as the average +/− standard deviation. FIC is calculated as (MIC of compound A in combination with B/MIC of compound A alone) + (MIC of compound B in combination with A/MIC of compound B alone). MICs were determined on the same plates as the FICs to increase reproducibility.

MCP-1 = test: Murine EMRSA-15 lung infection model: BAL cytokine ELISA; type: in vivo, C57Bl6J mice; conditions: vancomycin or D-pleurocidin-KR i.v., 48 h
TNFα = test: as above; type: in vivo, C57Bl6J mice; conditions: vancomycin or D-pleurocidin-KR i.v., 48 h
Calu-3 = type: cell-based; conditions: XTT, 24 h with peptide, OD475; DMEM/F-12, 10% FBS; average and standard error of three biological replicates
Experimental: as §1

HeLa = type: cell-based; conditions: XTT, 24 h with peptide, OD475; Eagle's Minimum Essential Media, 10% FBS; average and standard error of three biological replicates
Experimental: as §1

A549 = type: cell-based; conditions: XTT, 24 h with peptide, OD475; DMEM, 10% FBS; average and standard error of three biological replicates
Experimental: as §1

CC(C)C[C@@H](NC(=O)[C@@H](Cc1ccc(O)cc1)NC(=O)[C@@H](Cc1c[nH]cn1)NC(=O)[C@H](NC(=O)[C@@H](CC(C)C)NC(=O)[C@@H](C)NC(=O)[C@@H](C)NC(=O)[C@@H](CCCNC(=N)N)NC(=O)CNC(=O)[C@H](NC(=O)[C@@H](Cc1c[nH]cn1)NC(=O)[C@@H](CCCNC(=N)N)NC(=O)CNC(=O)[C@H](NC(=O)[C@@H](Cc1c[nH]cn1)NC(=O)[C@@H](C)NC(=O)[C@@H](C)NC(=O)[C@@H](CCCNC(=N)N)NC(=O)[C@@H](CCCNC(=N)N)NC(=O)[C@@H](Cc1ccccc1)NC(=O)[C@@H](Cc1ccccc1)NC(=O)[C@@H](CO)NC(=O)CNC(=O)[C@@H](Cc1c[nH]c2ccccc12)NC(=O)CN)C(C)C)C(C)C)[C@H](C)O)C(N)=O [D-pleurocidin-KR] (H-G[dW]G[dS][dF][dF][dR][dR][dA][dA][dH][dV]G[dR][dH][dV]G[dR][dA][dA][dL][dT][dH][dY][dL]-NH2; N-terminus assumed)
Toxicity HEK293 (EC50 / IC50) (HEK293): (36.4 ± 4.3) µg/ml
MIC, peptide concentration [1]: 0.5 µg/mL
levels of MCP-1 in BAL (MCP-1): No effects
levels of TNFα in BAL (TNFα): No effects
Toxicity Calu-3 (EC50 / IC50) (Calu-3): (39.1 ± 1.8) µg/ml
Toxicity HeLa (EC50 / IC50) (HeLa): (25.3 ± 2.2) µg/ml
Toxicity A549 (EC50 / IC50) (A549): (56.5 ± 4.5) µg/ml
